Test results from US10421761B2, “Compounds for kinase modulation, and indications therefor” (Plexxikon Inc., priority 2013, dated 2019).
Like-named read-outs stand apart in the source and are kept apart here.

Legend:
BRAF V600E = target: T1, BRAF V600E (Homo sapiens, UniProt P15056, V600E); assay: BRAF V600E biochemical kinase activity assay (AlphaScreen, biotin-MEK1 substrate); conditions: BRAF V600E biochemical inhibitory activity
T1 construct: purchased Upstate Biotechnology

B9 (HRAS Q61L) cell line = assay: B9 P-ERK cell activation assay (AlphaScreen); format: cell-based, mouse; conditions: Mus musculus, P-ERK cell activation, B9, read-out: Cell activity (EC50 μM) B9_pERK
Summary of the method: (§1)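 Phospho-ERK1/2 (Thr202/Tyr204) in lysates quantified via AlphaScreen bead proximity, after one-hour, 37° C. exposure of cells to eight compound concentrations. Lines: IPC-298 human melanoma with activated NRAS; B9 mouse squamous carcinoma with activated HRAS.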

[1] = tested on: IPC-298 (NRAS Q61L) cell line; assay: IPC-298 P-ERK cell activation assay (AlphaScreen); format: cell-based, human; conditions: Homo sapiens, P-ERK cell activation, IPC-298, read-out: Cell activity (EC50 μM) IPC-298_P-ERK
Summary of the method: as §1

[2] = tested on: A375 (BRAF V600E) cell line; assay: A375 P-ERK inhibition assay (AlphaScreen); format: cell-based, human; conditions: Homo sapiens, A-375; A375_P-ERK
Summary of the method: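 Phospho-ERK1/2 (Thr202/Tyr204) detected in lysates by AlphaScreen proximity signal, pairing a total-ERK antibody with a phospho-specific antibody. Before lysis, A375 cells received compound as an 8-point titration for one hour at 37° C.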

T1 sequence (P15056 whole entry V600E): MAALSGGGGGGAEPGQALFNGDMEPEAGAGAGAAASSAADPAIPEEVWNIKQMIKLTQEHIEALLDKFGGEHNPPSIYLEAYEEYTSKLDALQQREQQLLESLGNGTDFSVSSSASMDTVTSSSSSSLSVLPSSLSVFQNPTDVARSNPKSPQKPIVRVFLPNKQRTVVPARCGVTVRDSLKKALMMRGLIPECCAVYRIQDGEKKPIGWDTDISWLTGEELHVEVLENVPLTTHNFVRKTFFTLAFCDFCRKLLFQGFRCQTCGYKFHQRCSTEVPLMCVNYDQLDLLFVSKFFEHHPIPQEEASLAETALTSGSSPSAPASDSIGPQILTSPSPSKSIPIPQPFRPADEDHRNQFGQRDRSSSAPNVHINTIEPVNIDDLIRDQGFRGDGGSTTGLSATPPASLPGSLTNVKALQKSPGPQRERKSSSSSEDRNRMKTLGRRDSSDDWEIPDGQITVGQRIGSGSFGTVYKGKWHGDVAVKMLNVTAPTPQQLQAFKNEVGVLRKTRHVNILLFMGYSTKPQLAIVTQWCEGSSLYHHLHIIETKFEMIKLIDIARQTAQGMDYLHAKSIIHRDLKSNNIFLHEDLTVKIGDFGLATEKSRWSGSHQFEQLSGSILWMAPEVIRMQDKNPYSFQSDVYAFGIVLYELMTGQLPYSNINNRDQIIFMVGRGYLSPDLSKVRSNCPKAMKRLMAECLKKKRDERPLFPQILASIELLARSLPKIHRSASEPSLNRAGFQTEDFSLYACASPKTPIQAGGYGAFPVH

SMILES	IC50 (BRAF V600E) [µM]	EC50 (B9 (HRAS Q61L) cell line; numeric bounds) [µM]	EC50 ([1]; numeric bounds) [µM]	IC50 [2] [µM]	EC50 (B9 (HRAS Q61L) cell line; class symbols) [µM]	EC50 ([1]; class symbols) [µM]
CCC(C)S(=O)(=O)Nc1ccc(F)c(C(=O)c2c[nH]c3nccc(Cl)c23)c1F (stereo not drawn) [P-2016, N-[3-(4-chloro-1H-pyrrolo[2,3-b]pyridine-3-carbonyl)-2,4-difluoro-phenyl]butane-2-sulfonamide]	0.0001 to 1	> 10	> 10	0.0001 to 1	–	–
COC(=O)N[C@@H](C)CNc1nccc(-c2sc(-c3ccccc3)nc2-c2cccc(NS(=O)(=O)N3CC[C@H](F)C3)c2F)n1 [P-2153, methyl N-[(1S)-2-[[4-[4-[2-fluoro-3-[[(3S)-3-fluoropyrrolidin-1-yl]sulfonylamino]phenyl]-2-phenyl-thiazol-5-yl]pyrimidin-2-yl]amino]-1-methyl-ethyl]carbamate]	0.0001 to 1	–	–	0.0001 to 1	0.0001 to 1	0.0001 to 1
CCC(C)S(=O)(=O)Nc1ccc(F)c(C(=O)c2c[nH]c3nccc(C#N)c23)c1F (stereo not drawn) [P-2020, N-[3-(4-cyano-1H-pyrrolo[2,3-b]pyridine-3-carbonyl)-2,4-difluoro-phenyl]butane-2-sulfonamide]	0.0001 to 1	> 10	> 10	0.0001 to 1	–	–
CCC(C)S(=O)(=O)Nc1ccc(F)c(C(=O)c2c[nH]c3ncnc(NCC4CC4)c23)c1F (stereo not drawn) [P-2056, N-[3-[4-(cyclopropylmethylamino)-7H-pyrrolo[2,3-d]pyrimidine-5-carbonyl]-2,4-difluoro-phenyl]butane-2-sulfonamide]	0.0001 to 1	> 10	> 10	0.0001 to 1	–	–
CCN(C)S(=O)(=O)Nc1cccc(C(=O)c2c[nH]c3ncnc(N[C@@H](C)C4CC4)c23)c1F [P-2080, 4-[[(1S)-1-cyclopropylethyl]amino]-5-[3-[[ethyl(methyl)sulfamoyl]amino]-2-fluoro-benzoyl]-7H-pyrrolo[2,3-d]pyrimidine]	0.0001 to 1	> 10	> 10	0.0001 to 1	–	–
CCN(C)S(=O)(=O)Nc1cccc(C(=O)c2c[nH]c3ncnc(NCCOC)c23)c1F [P-2073, 5-[3-[[ethyl(methyl)sulfamoyl]amino]-2-fluoro-benzoyl]-4-(2-methoxyethylamino)-7H-pyrrolo[2,3-d]pyrimidine]	0.0001 to 1	> 10	> 10	0.0001 to 1	–	–
COC(=O)N[C@@H](C)CNc1nccc(-c2nn(C(C)C)cc2-c2cc(Cl)cc(NS(=O)(=O)C3CC3)c2F)n1 [P-2170, methyl N-[(1S)-2-[[4-[4-[5-chloro-3-(cyclopropylsulfonylamino)-2-fluoro-phenyl]-1-isopropyl-pyrazol-3-yl]pyrimidin-2-yl]amino]-1-methyl-ethyl]carbamate]	0.0001 to 1	–	–	0.0001 to 1	0.0001 to 1	0.0001 to 1
CCCNc1ncnc2[nH]cc(C(=O)c3cccc(NS(=O)(=O)N(C)CC)c3F)c12 [P-2066, 5-[3-[[ethyl(methyl)sulfamoyl]amino]-2-fluoro-benzoyl]-4-(propylamino)-7H-pyrrolo[2,3-d]pyrimidine]	0.0001 to 1	> 10	> 10	0.0001 to 1	–	–
N#Cc1ccnc2[nH]cc(C(=O)c3c(F)ccc(NS(=O)(=O)C4CCC4)c3F)c12 [P-2021, N-[3-(4-cyano-1H-pyrrolo[2,3-b]pyridine-3-carbonyl)-2,4-difluoro-phenyl]cyclobutanesulfonamide]	0.0001 to 1	> 10	> 10	> 10	–	–
CCN(C)S(=O)(=O)Nc1cccc(C(=O)c2c[nH]c3ncnc(NCC(C)(C)O)c23)c1F [P-2069, 5-[3-[[ethyl(methyl)sulfamoyl]amino]-2-fluoro-benzoyl]-4-[(2-hydroxy-2-methyl-propyl)amino]-7H-pyrrolo[2,3-d]pyrimidine]	0.0001 to 1	> 10	> 10	0.0001 to 1	–	–
CCN(C)S(=O)(=O)Nc1ccc(F)c(C(=O)c2c[nH]c3ncnc(NCC4CC4)c23)c1F [P-2061, 4-(cyclopropylmethylamino)-5-[3-[[ethyl(methyl)sulfamoyl]amino]-2,6-difluoro-benzoyl]-7H-pyrrolo[2,3-d]pyrimidine]	0.0001 to 1	> 10	> 10	0.0001 to 1	–	–
COc1ccnc2[nH]cc(C(=O)c3c(F)ccc(NS(=O)(=O)C(C)C)c3F)c12 [Compound P-2001, N-[2,4-difluoro-3-(4-methoxy-1H-pyrrolo[2,3-b]pyridine-3-carbonyl)phenyl]propane-2-sulfonamide]	0.0001 to 1	> 10	> 10	> 10	–	–
CCN(C)S(=O)(=O)Nc1cccc(C(=O)c2c[nH]c3ncnc(C)c23)c1F [P-2090, 5-[3-[[ethyl(methyl)sulfamoyl]amino]-2-fluoro-benzoyl]-4-methyl-7H-pyrrolo[2,3-d]pyrimidine]	0.0001 to 1	> 10	> 10	0.0001 to 1	–	–
CC(=O)Nc1ccc(NC(=O)c2c(F)ccc(NS(=O)(=O)N3CCCC3)c2F)cn1 [P-2036, N-(6-acetamido-3-pyridyl)-2,6-difluoro-3-(pyrrolidin-1-ylsulfonylamino)benzamide]	1 to 10	> 10	> 10	1 to 10	–	–
CC(C)(C)c1nc(-c2cccc(NS(=O)(=O)N3CCCC3)c2F)c(Br)s1 [P-2127, N-[3-(5-bromo-2-tert-butyl-thiazol-4-yl)-2-fluoro-phenyl]pyrrolidine-1-sulfonamide]	0.0001 to 1	> 10	> 10	> 10	–	–

Other lines, results leading:

IC50 (BRAF V600E) [µM]	EC50 (B9 (HRAS Q61L) cell line; numeric bounds) [µM]	EC50 ([1]; numeric bounds) [µM]	IC50 [2] [µM]	EC50 (B9 (HRAS Q61L) cell line; class symbols) [µM]	EC50 ([1]; class symbols) [µM]	SMILES
0.0001 to 1	> 1	> 10	0.0001 to 1	–	–	O=C(c1cc(F)cc(NS(=O)(=O)N2CC[C@@H](F)C2)c1F)c1c[nH]c2ncc(-c3cnc(C4CC4)nc3)cc12 [P-2172, (3R)—N-[3-[5-(2-cyclopropylpyrimidin-5-yl)-1H-pyrrolo[2,3-b]pyridine-3-carbonyl]-2,5-difluoro-phenyl]-3-fluoro-pyrrolidine-1-sulfonamide]
0.0001 to 1	> 10	> 10	0.0001 to 1	–	–	O=C(c1cccc(NS(=O)(=O)N2CCCC2)c1F)c1c[nH]c2ncnc(NCCCN3CCOCC3)c12 [P-2111, N-[2-fluoro-3-[4-(3-morpholinopropylamino)-7H-pyrrolo[2,3-d]pyrimidine-5-carbonyl]phenyl]pyrrolidine-1-sulfonamide]
0.0001 to 1	> 10	> 10	0.0001 to 1	–	–	O=C(c1cccc(NS(=O)(=O)N2CCCC2)c1F)c1c[nH]c2ncnc(NC[C@@H]3CCCO3)c12 [P-2082, N-[2-fluoro-3-[4-[[(2S)-tetrahydrofuran-2-yl]methylamino]-7H-pyrrolo[2,3-d]pyrimidine-5-carbonyl]phenyl]pyrrolidine-1-sulfonamide]
0.0001 to 1	> 10	> 10	1 to 10	–	–	O=C(c1cc(C(F)(F)F)cc(NS(=O)(=O)N2CC[C@@H](F)C2)c1F)c1c[nH]c2ncc(-c3cnc(C4CC4)nc3)cc12 [P-2178, (3R)—N-[3-[5-(2-cyclopropylpyrimidin-5-yl)-1H-pyrrolo[2,3-b]pyridine-3-carbonyl]-2-fluoro-5-(trifluoromethyl)phenyl]-3-fluoro-pyrrolidine-1-sulfonamide]
0.0001 to 1	> 10	> 1	0.0001 to 1	–	–	O=C(c1cc(F)cc(NS(=O)(=O)N2CCCC2)c1F)c1c[nH]c2ncc(-c3cnc(C4CC4)nc3)cc12 [P-2171, N-[3-[5-(2-cyclopropylpyrimidin-5-yl)-1H-pyrrolo[2,3-b]pyridine-3-carbonyl]-2,5-difluoro-phenyl]pyrrolidine-1-sulfonamide]
0.0001 to 1	–	> 10	0.0001 to 1	0.0001 to 1	–	COC(=O)N[C@@H](C)CNc1nccc(-c2nn(C(C)C)cc2-c2cc(Cl)cc(NS(=O)(=O)N3CC[C@@H](F)C3)c2F)n1 [P-2161, methyl N-[(1S)-2-[[4-[4-[5-chloro-2-fluoro-3-[[(3R)-3-fluoropyrrolidin-1-yl]sulfonylamino]phenyl]-1-isopropyl-pyrazol-3-yl]pyrimidin-2-yl]amino]-1-methyl-ethyl]carbamate]
0.0001 to 1	> 10	> 10	0.0001 to 1	–	–	CCN(C)S(=O)(=O)Nc1cccc(C(=O)c2c[nH]c3ncnc(NC4CC4)c23)c1F [P-2063, 4-(cyclopropylamino)-5-[3-[[ethyl(methyl)sulfamoyl]amino]-2-fluoro-benzoyl]-7H-pyrrolo[2,3-d]pyrimidine]
0.0001 to 1	> 10	> 10	0.0001 to 1	–	–	CCN(C)S(=O)(=O)Nc1cccc(C(=O)c2c[nH]c3ncnc(N[C@H](C)C4CC4)c23)c1F [P-2079, 4-[[(1R)-1-cyclopropylethyl]amino]-5-[3-[[ethyl(methyl)sulfamoyl]amino]-2-fluoro-benzoyl]-7H-pyrrolo[2,3-d]pyrimidine]
0.0001 to 1	> 10	> 10	1 to 10	–	–	CCCN(C)S(=O)(=O)Nc1cccc(C(=O)c2c[nH]c3ncnc(C4CC4)c23)c1F [P-2087, 4-cyclopropyl-5-[2-fluoro-3-[[methyl(propyl)sulfamoyl]amino]benzoyl]-7H-pyrrolo[2,3-d]pyrimidine]
